The results in this text go back to patent publication US8911771B2, “Fluid application device and method” (Otsuka America Pharmaceutical, Inc., priority 2004, dated 2014).

Usually MIC stands for the least concentration at which growth counts as inhibited. The low end stands for a more susceptible organism, the high end for a less susceptible organism.

The assay relates to wide range of bacteria (1050 organisms; clinical isolates from a number of bacterial and fungal species). As to the kind of experiment: in vitro minimum inhibitory concentration (MIC) testing. Conditions: concentration of olanexidine solution inhibiting >95% of 1050 organisms. Format: cell-based. From the text: The bacteria included in the MIC testing study included clinical isolates from a number of bacterial and fungal species. The MIC method is a widely accepted methodology that is useful for determining and comparing in vitro antimicrobial activity, while the Pig Skin Model is useful for determining activity under simulated conditions of use. The following chart summarizes the results obtained with the Pig Skin Model: […]

The compound `CCCCCCCCNC(=N)NC(=N)NCc1ccc(Cl)c(Cl)c1` [olanexidine, 1-(3,4-dichlorobenzyl)-5-octylbiguanide] showed an MIC of no more than 32 µg/mL.
